Assay results from article PMC13108699, “Mass balance and metabolite profiling of ^14C-Zalunfiban in humans following single-dose subcutaneous administration” (Xenobiotica; the fate of foreign compounds in biological …, 2025).
Several values for one entry are separate records, joined by “and”; a condition that tells them apart may be missing. Equal entries are not always repeated.

Key:
[1] = Metabolite profiling of pooled whole blood, urine and faeces by LC radiochromatograms with AMS; assay type: in vivo, human
Procedure: For metabolite profiling in whole blood, urine, and faeces, LC-MS/MS followed by AMS was used. The HPLC system included a 1290 Infinity Sampler, Binary Pump, and thermostat (Agilent, UK). The chromatographic method used an aqueous formic acid (MPA)/ammonium acetate:acetonitrile:methanol (MPB) gradient and a Scherzo SS-C18 HPLC column at a temperature of 40 °C with injection volumes of 50–200 microliters. The gradient was set at 90% MAP and 10% MPB. The mass spectrometer was a Q-Exactive system (Thermo Fisher Scientific, UK) and the AMS a single stage NEC SSAMS-250.
Single whole blood, faeces, and urine pools were created across subjects and radioactive regions representing 10% or more of the circulating radioactivity were analysed (e.g. 10% or more of the circulating radioactivity in whole blood or accounting for 10% or more of the administered radioactivity/dose in urine and faeces), To create the pool, an individual subject AUC pool was prepared, and a constant proportion of each subject pool was taken to create one cross-subject pool. The whole blood sample pool included samples from hours 0–144, the urine sample pool included samples from hours 0–48, and the faeces pool from hours 0–192.
Whole blood, faeces, and urine radiochromatograms were generated for each sample by collecting HPLC fractions at intervals of 2 (30 s) or 4 (15 s) per minute over the run time of 110 min.
Radiochromatograms were generated from AMS data using the LAURA V6 software (LabLogic, Sheffield, UK). Regions of interest were quantified and provisionally identified where possible by assignment of observed peaks in each radiochromatogram to either parent zalunfiban or M1 by retention time matching, with corresponding ^12C-reference standards obtained via LC-UV.
Assignment of parent and metabolites was made by matching retention times with synthesised standards at wavelengths of 210, 230, 254, 270, and 300 nm, using liquid chromatography ultraviolet chromatography (LC-UV).
For extraction of ^14C-zalunfiban from whole blood, weighed aliquots in microcentrifuge tubes were processed with vortex mixing and centrifugation. The supernatant was then harvested and the process repeated with the bullet material in the original tube using acetonitrile and then methanol. The combined aliquots then underwent AMS analysis to determine the extraction recovery. Once optimised, the final combined supernatant was dried under N2 gas at 40 °C and reconstituted with 1 mL methanol:water (20:80, v/v), with vortex mixing and sonication. This was followed by analysis by LC. The radioactivity extraction recovery for whole blood (AUC0–144h) was 54.5%,
For extraction of ^14C-zalunfiban from homogenised faeces, weighed aliquots in microcentrifuge tubes were processed with vortex mixing and centrifugation, and then diluted with acetonitrile, followed by additional mixing, centrifugation, and repeat extraction with methanol:water until optimised. Once optimised, the final combined supernatant was dried under N2 gas at 40 °C and reconstituted with methanol, followed by water, followed by vortex mixing, followed by analysis by LC. The radioactivity extraction recovery for faeces (0–192 h) was 100%.
Urine was not subjected to extraction. An aliquot was dispensed into an LC vial prior to analysis.

[2] = system: platelet aggregation; test: In vitro inhibition of ADP-induced platelet aggregation in platelet-rich plasma; assay type: cell-based, human
Procedure: Ten mL of whole blood was collected from healthy human donors via venipuncture and treated with an anticoagulant (D-phenylalanyl-prolyl-arginyl chloromethyl ketone). From this, platelet-rich plasma (PRP) was prepared by centrifuging whole blood at room temperature at 650 × g for 4 min. PRP was removed and standardised to a uniform platelet concentration of 3.0 × 10^5/μL, using platelet poor plasma as a diluent, where necessary. […] Platelet aggregation was measured using an aggregometer (PAP-8E C/N 106075; Bio/Data Corp, Horsham PA). For M1 a range of concentrations was tested to produce a single fitted curve, and the Levenberg-Marquardt approach was used to calculate IC50 values.

[3] = Water solubility; assay type: physicochemical
[4] = Lipophilicity; assay type: physicochemical

Q: Which “Percentage of dose excreted in urine” value ([1]; 0–48 h) does the source give for Nc1cncc(-c2nn3c(=O)cc(N4CCNCC4)nc3s2)c1 [M1, des-gly-zalunfiban] here?
A: Its value is 52.98% and 53.0%.

Q: What about the “Percentage of total radioactivity in urine” value ([1]; 0–48 h cross-participant pooled sample) of the same compound?
A: The value was 64.1%.

Q: And the “Percentage of dose excreted in faeces” value ([1]; 0–192 h)?
A: Its value is 2.87%.

Q: And the “Percentage of total radioactivity in faeces” value ([1]; 0–192 h pooled sample)?
A: Its value is 20.8%.

Q: What about the “Percentage of total circulating radioactivity in whole blood” value ([1]; AUC0–144 cross-pooled whole blood extract) of the same compound?
A: Its value is 24.4%.

Q: And the “Radiochromatogram peak, faeces extract” value ([1]; male, human, in vivo)?
A: Its value is 20.83 %ROI.

Q: And the IC50 ([2]; Homo sapiens, Platelet, 20 min, PRP, 20 min at 22°C, ADP-initiated aggregation)?
A: Its IC50 is 25.5 ± 3.5 µM.

Q: What about the “Antiplatelet activity relative to zalunfiban” value ([2]; from IC50 values) of the same compound?
A: Its value is < 1%.

Q: What about the solubility [3] of the same compound?
A: The solubility was < 0.01 µg/mL.

Q: What about the “Lipophilicity compared with zalunfiban” value [4] of the same compound?
A: Its value is “more lipophilic than zalunfiban”.
